The values below come from ChEMBL document CHEMBL5104157, “Design, synthesis and biological evaluation of light-driven on-off multitarget AChE and MAO-B inhibitors” (RSC Med Chem, 2022).

As usually defined, the inhibition is the share of the control response that was lost under treatment. What is called IC50 is the concentration that inhibits the measured activity by half.

Series [1] concerns the target Cholinesterase (Homo sapiens) (UniProt P06276). Kind of series: Inhibition of human serum recombinant BChE using butyrylthiocholine iodide as a substrate at 10 uM incubated for 20 mins by DTNB reagent based Ellman's method. The series is classed as cell-free. In general terms: DTNB colorimetry detects thiols as they appear.
A further series has as its target Acetylcholinesterase (Homo sapiens, UniProt P22303). Kind of series: Inhibition of human serum recombinant AChE using acetylthiocholine iodide as a substrate incubated for 20 mins by DTNB reagent based Ellman's method. In kind it is cell-free.
Series [2] concerns the target Amyloid-beta precursor protein (Homo sapiens) (UniProt P05067). In words: Inhibition of amyloid beta (1 to 40) (unknown origin) self aggregation at 10 uM incubated for 2 hrs by ThT fluorescence assay.
For series [3], the target named is T1, Amine oxidase [flavin-containing] B (Homo sapiens, UniProt P27338).
T1 sequence (P27338 whole entry): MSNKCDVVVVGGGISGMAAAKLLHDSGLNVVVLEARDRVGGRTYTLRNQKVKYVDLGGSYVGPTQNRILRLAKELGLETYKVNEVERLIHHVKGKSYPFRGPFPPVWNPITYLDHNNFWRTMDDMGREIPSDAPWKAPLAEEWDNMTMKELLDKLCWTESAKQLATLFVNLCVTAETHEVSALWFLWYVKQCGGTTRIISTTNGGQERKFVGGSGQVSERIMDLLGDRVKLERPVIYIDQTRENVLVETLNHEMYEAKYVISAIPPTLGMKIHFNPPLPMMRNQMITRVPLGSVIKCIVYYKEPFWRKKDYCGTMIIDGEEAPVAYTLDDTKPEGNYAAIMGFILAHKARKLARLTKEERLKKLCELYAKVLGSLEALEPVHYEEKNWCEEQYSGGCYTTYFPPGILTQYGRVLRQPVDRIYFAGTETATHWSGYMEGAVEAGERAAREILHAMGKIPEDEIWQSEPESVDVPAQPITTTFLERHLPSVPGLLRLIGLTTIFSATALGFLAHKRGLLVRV
Kind of series: Inhibition of human recombinant MAO-B assessed as reduction in 4-hydroxyquinoline level using kynuramine as a substrate preincubated for 5 mins followed by substrate addition by spectrofluorimetric analysis.

For series [4], the target named is T2, MAO-A (amine oxidase [flavin-containing] A) (Homo sapiens, UniProt P21397).
T2 sequence (P21397 whole entry): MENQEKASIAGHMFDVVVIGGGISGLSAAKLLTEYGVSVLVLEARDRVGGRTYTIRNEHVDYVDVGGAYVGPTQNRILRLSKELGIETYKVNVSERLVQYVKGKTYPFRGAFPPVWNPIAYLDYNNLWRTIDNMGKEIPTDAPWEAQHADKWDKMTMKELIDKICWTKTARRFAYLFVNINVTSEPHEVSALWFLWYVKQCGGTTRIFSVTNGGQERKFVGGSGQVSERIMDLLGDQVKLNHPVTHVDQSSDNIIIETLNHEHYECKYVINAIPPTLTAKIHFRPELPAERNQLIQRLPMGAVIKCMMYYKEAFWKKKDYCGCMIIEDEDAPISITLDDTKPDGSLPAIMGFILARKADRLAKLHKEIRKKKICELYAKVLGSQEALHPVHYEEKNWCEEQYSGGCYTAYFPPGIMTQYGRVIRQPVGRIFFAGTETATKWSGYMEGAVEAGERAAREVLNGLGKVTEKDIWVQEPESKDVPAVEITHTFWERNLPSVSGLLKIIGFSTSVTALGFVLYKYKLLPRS
Kind of series: Inhibition of human recombinant MAO-A assessed as reduction in 4-hydroxyquinoline level using kynuramine as a substrate at 10 uM preincubated for 5 mins followed by substrate addition by spectrofluorimetric analysis. The conditions noted are these: probe kynuramine.

Series [5] has as its target T3, Amine oxidase [flavin-containing] A (Homo sapiens, UniProt P21397).
T3 sequence (P21397 whole entry): T2 sequence (P21397 whole entry)
In words: Inhibition of human recombinant MAO-A assessed as reduction in 4-hydroxyquinoline level using kynuramine as a substrate preincubated for 5 mins followed by substrate addition by spectrofluorimetric analysis.

Sequence of Cholinesterase (Homo sapiens) (P06276 whole entry): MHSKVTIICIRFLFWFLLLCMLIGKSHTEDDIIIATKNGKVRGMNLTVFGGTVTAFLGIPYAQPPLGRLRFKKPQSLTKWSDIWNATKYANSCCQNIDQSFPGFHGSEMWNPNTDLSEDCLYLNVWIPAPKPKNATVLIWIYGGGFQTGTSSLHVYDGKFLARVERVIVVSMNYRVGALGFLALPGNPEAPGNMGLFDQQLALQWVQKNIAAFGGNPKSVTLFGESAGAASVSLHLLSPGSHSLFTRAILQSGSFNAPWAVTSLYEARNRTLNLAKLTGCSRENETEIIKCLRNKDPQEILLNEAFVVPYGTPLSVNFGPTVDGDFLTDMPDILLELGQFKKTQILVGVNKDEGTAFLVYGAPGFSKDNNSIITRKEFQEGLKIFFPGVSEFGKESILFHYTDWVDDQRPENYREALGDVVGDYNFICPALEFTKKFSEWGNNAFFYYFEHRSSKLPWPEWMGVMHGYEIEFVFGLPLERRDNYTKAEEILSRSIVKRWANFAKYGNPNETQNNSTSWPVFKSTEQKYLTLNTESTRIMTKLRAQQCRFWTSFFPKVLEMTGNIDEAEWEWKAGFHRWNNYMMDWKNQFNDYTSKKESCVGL
Sequence of Acetylcholinesterase (P22303 whole entry): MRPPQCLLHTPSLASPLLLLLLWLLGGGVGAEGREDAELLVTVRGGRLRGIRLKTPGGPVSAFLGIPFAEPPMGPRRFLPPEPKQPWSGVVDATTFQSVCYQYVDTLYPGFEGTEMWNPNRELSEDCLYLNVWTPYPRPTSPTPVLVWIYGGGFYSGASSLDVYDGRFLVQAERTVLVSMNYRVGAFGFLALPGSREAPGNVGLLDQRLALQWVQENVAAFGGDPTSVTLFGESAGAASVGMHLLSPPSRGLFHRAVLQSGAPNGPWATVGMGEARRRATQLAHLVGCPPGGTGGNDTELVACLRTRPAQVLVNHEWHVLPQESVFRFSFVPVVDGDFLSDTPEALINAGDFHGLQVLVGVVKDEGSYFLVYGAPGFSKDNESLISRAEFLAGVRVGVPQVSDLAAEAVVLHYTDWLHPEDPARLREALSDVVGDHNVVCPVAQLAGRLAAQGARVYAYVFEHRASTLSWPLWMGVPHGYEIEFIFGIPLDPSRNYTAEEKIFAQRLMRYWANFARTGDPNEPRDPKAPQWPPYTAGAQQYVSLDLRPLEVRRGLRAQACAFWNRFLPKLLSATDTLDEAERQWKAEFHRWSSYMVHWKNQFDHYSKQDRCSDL
Sequence of Amyloid-beta precursor protein (Homo sapiens) (P05067 whole entry): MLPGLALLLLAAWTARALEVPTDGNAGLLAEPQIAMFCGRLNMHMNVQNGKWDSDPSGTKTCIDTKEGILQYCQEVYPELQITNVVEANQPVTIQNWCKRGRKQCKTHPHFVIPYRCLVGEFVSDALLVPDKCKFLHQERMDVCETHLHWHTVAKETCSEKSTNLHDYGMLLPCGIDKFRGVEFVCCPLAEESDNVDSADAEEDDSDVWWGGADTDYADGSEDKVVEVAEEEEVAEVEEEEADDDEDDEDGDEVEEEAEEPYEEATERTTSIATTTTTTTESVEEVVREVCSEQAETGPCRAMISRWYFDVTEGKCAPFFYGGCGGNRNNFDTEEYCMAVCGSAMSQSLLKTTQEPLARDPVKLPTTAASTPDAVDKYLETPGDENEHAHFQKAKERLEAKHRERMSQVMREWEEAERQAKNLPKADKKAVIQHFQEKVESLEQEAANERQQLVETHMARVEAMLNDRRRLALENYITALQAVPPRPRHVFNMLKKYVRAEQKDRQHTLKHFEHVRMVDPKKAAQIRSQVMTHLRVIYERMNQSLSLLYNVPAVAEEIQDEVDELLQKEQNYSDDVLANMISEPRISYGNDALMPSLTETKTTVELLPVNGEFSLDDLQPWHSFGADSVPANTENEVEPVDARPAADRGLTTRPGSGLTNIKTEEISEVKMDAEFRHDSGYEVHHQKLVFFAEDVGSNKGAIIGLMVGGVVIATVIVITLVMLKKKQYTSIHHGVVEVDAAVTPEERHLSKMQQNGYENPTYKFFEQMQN

For `CCN(CC)Cc1ccc(C=C2Cc3ccc(OC)cc3C2=O)cc1`, the values for the inhibition in series [1] and in series [2] were 8.3% and 37.7%, respectively. Further, the IC50 on Acetylcholinesterase is 1.1 µM.

Regarding `CCN(CC)Cc1ccc(/C=C2/Cc3cc(OC)ccc3C2=O)cc1`, the IC50 was determined as 1.94 µM in series [3] and 1.15 µM at Acetylcholinesterase. Further, the inhibition at 10 µM in series [4] was 28.2%. The molecule further yielded an inhibition in series [2] of 23.4%.

Regarding `CCN(CC)Cc1ccc(C=C2Cc3cc(OC)ccc3C2=O)cc1`, in series [4], the inhibition at 10 µM was 45.1%. Further, the IC50 at Acetylcholinesterase came to 0.505 µM.

Regarding `O=c1c(O)c(-c2ccc(O)c(O)c2)oc2cc(O)cc(O)c12`, in series [2], the inhibition came to 84.4%.

Take `CCN(CC)Cc1ccc(C=C2Cc3ccccc3C2=O)cc1`: the inhibition stood at 16.2% in series [1] and 8.1% in series [2]. For the same molecule, at Acetylcholinesterase, the IC50 is 1.31 µM.

As for `CCN(CC)Cc1ccc(/C=C2\Cc3ccc(OC)cc3C2=O)cc1`, the IC50 in series [3] was found to be 0.091 µM; in series [5], 0.095 µM; on Acetylcholinesterase, 0.964 µM. The inhibition in series [1] was 14.3%.

As to `CCN(CC)Cc1ccc(/C=C2\Cc3cc(OC)c(OC)cc3C2=O)cc1`, the IC50 came to 0.783 µM in series [3] and 0.063 µM at Acetylcholinesterase. The inhibition at 10 µM in series [4] is 49.6%.

Turning to `CCN(CC)Cc1ccc(C=C2Cc3cc(OC)c(OC)cc3C2=O)cc1`, the 50% inhibitory concentration (IC50) on Acetylcholinesterase is 0.253 µM. In series [2], this molecule displayed an inhibition of 56%.

Regarding `CCN(CC)Cc1ccc(/C=C2\Cc3ccccc3C2=O)cc1`, the IC50 was found to be 0.661 µM in series [3] and 0.612 µM at Acetylcholinesterase. Moreover, the inhibition at 10 µM in series [4] stood at 42.7%. The inhibition in series [1] was 17.8%.

As to `CCN(CC)Cc1ccc(/C=C2\Cc3cc(OC)ccc3C2=O)cc1`, the inhibition at 10 µM in series [4] turned out to be 32.8%. Besides, the concentration for half-maximal inhibition (IC50) on Acetylcholinesterase came out at 0.113 µM. In addition, in series [2], the inhibition is 7.4%.
